Legend:
Assay in all cases: relative viability (nuclei count vs DMSO), 5 days (fraction); higher = more cells survive
AZ505 + Lapatinib = compound: C1CCC(CC1)N(CCNCCC2=C3C(=C(C=C2)O)NC(=O)CO3)C(=O)CCNCCC4=CC(=C(C=C4)Cl)Cl [AZ505] + CS(=O)(=O)CCNCc1ccc(-c2ccc3ncnc(Nc4ccc(OCc5cccc(F)c5)c(Cl)c4)c3c2)o1 [Lapatinib] (partner 2 µM)
Outline: (§1)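 Lung cancer cell lines were seeded in 1536-well plates and dosed by pin tool the next day, with either a single drug or a fixed anchor-drug dose combined with five library-drug doses (not always all listed) spaced in √10 steps. Five days later, one step fixed the cells and stained their nuclei (final 0.05% Triton X-100, 1% formaldehyde, 1 ug/ml Hoechst), and nuclei were counted on 4× images. Relative viability is the nuclei count in treated wells divided by the count in vehicle wells, and each value is the median of duplicate plates.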

AZ505 + Dasatinib = compound: C1CCC(CC1)N(CCNCCC2=C3C(=C(C=C2)O)NC(=O)CO3)C(=O)CCNCCC4=CC(=C(C=C4)Cl)Cl [AZ505] + Cc1nc(Nc2ncc(C(=O)Nc3c(C)cccc3Cl)s2)cc(N2CCN(CCO)CC2)n1 [Dasatinib] (partner 0.075 µM)
Outline: as §1

Dactolisib + Crizotinib = compound: Cn1c(=O)n(-c2ccc(C(C)(C)C#N)cc2)c2c3cc(-c4cnc5ccccc5c4)ccc3ncc21 [Dactolisib] + C[C@@H](Oc1cc(-c2cnn(C3CCNCC3)c2)cnc1N)c1c(Cl)ccc(F)c1Cl [Crizotinib] (partner 1 µM)
Outline: as §1

Dactolisib + Olaparib = compound: Cn1c(=O)n(-c2ccc(C(C)(C)C#N)cc2)c2c3cc(-c4cnc5ccccc5c4)ccc3ncc21 [Dactolisib] + O=C(c1cc(Cc2n[nH]c(=O)c3ccccc23)ccc1F)N1CCN(C(=O)C2CC2)CC1 [Olaparib] (partner 8 µM)
Outline: as §1

Cell Line | relative viability (AZ505 + Lapatinib; first compound 0.08 µM) | relative viability (AZ505 + Lapatinib; first compound 0.253 µM) | relative viability (AZ505 + Lapatinib; first compound 0.8 µM) | relative viability (AZ505 + Lapatinib; first compound 2.53 µM) | relative viability (AZ505 + Lapatinib; first compound 8 µM) | relative viability (AZ505 + Dasatinib; first compound 0.08 µM) | relative viability (AZ505 + Dasatinib; first compound 0.253 µM) | relative viability (AZ505 + Dasatinib; first compound 0.8 µM) | relative viability (AZ505 + Dasatinib; first compound 2.53 µM) | relative viability (AZ505 + Dasatinib; first compound 8 µM) | relative viability (Dactolisib + Crizotinib; first compound 0.002 µM) | relative viability (Dactolisib + Crizotinib; first compound 0.006325 µM) | relative viability (Dactolisib + Crizotinib; first compound 0.02 µM) | relative viability (Dactolisib + Crizotinib; first compound 0.06325 µM) | relative viability (Dactolisib + Crizotinib; first compound 0.2 µM) | relative viability (Dactolisib + Olaparib; first compound 0.002 µM) | relative viability (Dactolisib + Olaparib; first compound 0.006325 µM) | relative viability (Dactolisib + Olaparib; first compound 0.02 µM) | relative viability (Dactolisib + Olaparib; first compound 0.06325 µM) | relative viability (Dactolisib + Olaparib; first compound 0.2 µM)
NCI-H2085 | 0.67 | 0.7 | 0.668 | 0.789 | 0.83 | 0.246 | 0.242 | 0.234 | 0.252 | 0.237 | 0.904 | 0.763 | 0.668 | 0.523 | 0.305 | 0.887 | 0.778 | 0.689 | 0.513 | 0.359
COR-L23 | 0.873 | 0.987 | 0.878 | 0.82 | 0.74 | 0.351 | 0.427 | 0.358 | 0.383 | 0.475 | 0.787 | 0.604 | 0.619 | 0.283 | 0.165 | 0.345 | 0.351 | 0.312 | 0.182 | 0.141
BEN | 0.645 | 0.69 | 0.728 | 0.718 | 1.02 | 0.359 | 0.327 | 0.386 | 0.355 | 0.296 | 0.785 | 0.77 | 0.859 | 0.467 | 0.296 | 0.988 | 0.939 | 1.08 | 0.635 | 0.478
LK-2 | 0.777 | 0.837 | 1 | 1.05 | 1.03 | 0.254 | 0.327 | 0.415 | 0.431 | 0.366 | 0.209 | 0.244 | 0.266 | 0.213 | 0.216 | 0.61 | 0.836 | 0.491 | 0.328 | 0.17
NCI-H322M | 0.535 | 0.539 | 0.611 | 0.475 | 0.576 | 0.24 | 0.233 | 0.239 | 0.261 | 0.273 | 0.827 | 1.02 | 0.863 | 0.684 | 0.641 | 0.752 | 0.789 | 0.774 | 0.719 | 0.674
NCI-H520 | 0.799 | 0.828 | 0.761 | 0.895 | 0.983 | 0.198 | 0.217 | 0.181 | 0.229 | 0.26 | 0.813 | 0.658 | 0.539 | 0.207 | 0.174 | 0.328 | 0.308 | 0.284 | 0.144 | 0.128
ABC-1 | – | 1.1 | 1.11 | 1.12 | 1.23 | 0.539 | 0.524 | 0.542 | 0.58 | 0.515 | 0.632 | 0.97 | 0.908 | 0.765 | 0.396 | 0.911 | 0.862 | 0.952 | 1.1 | 0.613
NCI-H1666 | 0.532 | 0.544 | 0.531 | 0.614 | 0.518 | 0.745 | 0.795 | 0.783 | 0.828 | 0.69 | 1.22 | 0.884 | 0.876 | 0.637 | 0.436 | 0.955 | 0.683 | 0.874 | 0.713 | 0.747
NCI-H1993 | 0.838 | 0.764 | 0.871 | 0.782 | 0.941 | 0.653 | 0.722 | 0.611 | 0.623 | 0.737 | 0.84 | 0.761 | 0.66 | 0.594 | 0.585 | 1.29 | 0.865 | 0.827 | 0.432 | 0.37
NCI-H1975 | 0.773 | 0.82 | 0.858 | 0.9 | 0.885 | 0.343 | 0.358 | 0.425 | 0.343 | 0.495 | 1.18 | 0.948 | 0.7 | 0.358 | 0.34 | 0.778 | 0.817 | 0.632 | 0.302 | 0.269
